According to ChEMBL document CHEMBL3045776, “[1,2,4]Triazolo[4,3-a]quinoxaline: synthesis, antiviral, and antimicrobial activities” (Med Chem Res, 2012):
Converted amounts (≈) assume the structure as drawn.

Assays:
[1] = Cytotoxicity against Chlorocebus aethiops (African green monkey) Vero cells; type: cell-based; settings: chlorocebus sabaeus, read-out: CD50 (the source's name)
[2] = system: Human alphaherpesvirus 1; test: Antiviral activity against Human herpesvirus 1 infected African green monkey Vero cells assessed as reduction of virus induced plaque formation after 66 hr; type: functional; settings: Human alphaherpesvirus 1, 66 h
[3] = system: Human alphaherpesvirus 1; test: Antiviral activity against Human herpesvirus 1 infected African green monkey Vero cells assessed as reduction of virus induced plaque formation at […] after 66 hr; type: functional; set-up: scale not given: the % may be the effect or the level left
[4] = system: Staphylococcus aureus; test: Antibacterial activity against Staphylococcus aureus at 500 ug/disk after 24 hr by disk diffusion method; type: functional; settings: read-out: IZ
[5] = system: Candida albicans; test: Antifungal activity against Candida albicans at 500 ug/disk after 72 hr by disk diffusion method; type: functional; settings: read-out: IZ
[6] = system: Staphylococcus aureus; test: Antibacterial activity against Staphylococcus aureus after 24 hr by agar dilution method; type: functional
[7] = system: Escherichia coli; test: Antibacterial activity against Escherichia coli at 500 ug/disk after 24 hr by disk diffusion method; type: functional; settings: read-out: IZ
[8] = system: Escherichia coli; test: Antibacterial activity against Escherichia coli after 24 hr by agar dilution method; type: functional
[9] = system: Bacillus subtilis; test: Antibacterial activity against Bacillus subtilis at 500 ug/disk after 24 hr by disk diffusion method; type: functional; settings: read-out: IZ
[10] = system: Candida albicans; test: Antifungal activity against Candida albicans after 48 hr by agar dilution method; type: functional
[11] = system: Bacillus subtilis; test: Antibacterial activity against Bacillus subtilis after 24 hr by agar dilution method; type: functional
[12] = system: Staphylococcus aureus; test: Antibacterial activity against Staphylococcus aureus at 50 ug/ml after 24 hr by disk diffusion method; settings: read-out: IZ
[13] = system: Escherichia coli; test: Antibacterial activity against Escherichia coli at 50 ug/ml after 24 hr by disk diffusion method; settings: read-out: IZ
[14] = system: Bacillus subtilis; test: Antibacterial activity against Bacillus subtilis at 50 ug/ml after 24 hr by disk diffusion method; settings: read-out: IZ
[15] = system: Candida albicans; test: Antifungal activity against Candida albicans at 1000 ug/ml after 72 hr by disk diffusion method; type: functional; settings: read-out: IZ

| Compound | CC50 [1] [µg/mL] | MIC [2] [µg/mL] | Activity [3] [%] | zone of inhibition at 500 µg/disc [4] [mm] | zone of inhibition at 500 µg/disc [7] [mm] | MIC [8] [µg/mL] | other results |
| --- | --- | --- | --- | --- | --- | --- | --- |
| CC(=O)Nc1nnc2c(N3CCN(c4ccccc4C)CC3)nc3ccc(C)cc3n12 | > 200 | – | – | – | – | – | – |
| Cc1ccc2nc(N3CCN(c4ccccc4C)CC3)c3nnc(NC(=O)c4ccccc4)n3c2c1 | 160 (≈ 335 µM) | 80 (≈ 168 µM) | <25 | – | – | – | – |
| Cc1ccc2nc(N3CCCCC3)c3nnc(NC(=O)c4ccccc4)n3c2c1 | 160 (≈ 414 µM) | 80 (≈ 207 µM) | <25 | 20 | 10 | – | zone of inhibition at 500 µg/disc [5]: 10 mm; MIC [6]: 84 µg/mL (≈ 217 µM) |
| CC(=O)c1ccc(Nc2nc3ccc(C)cc3n3c(NC(=O)c4ccccc4)nnc23)cc1 | – | – | – | 15 | 15 | 67 (≈ 154 µM) | MIC [6]: 94 µg/mL (≈ 215 µM); zone of inhibition at 500 µg/disc [9]: 10 mm |
| Cc1ccc2nc(Sc3nnc(-c4ccccc4O)o3)c3nnc(N)n3c2c1 | 160 (≈ 409 µM) | 80 (≈ 204 µM) | <25 | – | – | – | – |
| Cc1ccc2nc(Sc3nnc(-c4cccnc4)o3)c3nnc(N)n3c2c1 | 160 (≈ 425 µM) | 80 (≈ 213 µM) | <25 | – | 10 | – | – |
| Cc1ccc2nc(Sc3nnc(-c4cccs4)n3-c3ccccc3)c3nnc(N)n3c2c1 | 160 (≈ 350 µM) | 80 (≈ 175 µM) | <25 | 15 | 20 | 98 (≈ 215 µM) | zone of inhibition at 500 µg/disc [5]: 20 mm; MIC [6]: 124 µg/mL (≈ 272 µM); MIC [10]: 78 µg/mL (≈ 171 µM); MIC [11]: 91 µg/mL (≈ 199 µM); zone of inhibition at 500 µg/disc [9]: 15 mm |
| COc1ccc(/C=N/c2n[nH]c(Sc3nc4ccc(C)cc4n4c(N)nnc34)n2)cc1OC | – | – | – | 10 | 15 | 102 (≈ 221 µM) | zone of inhibition at 500 µg/disc [5]: 20 mm; MIC [10]: 112 µg/mL (≈ 243 µM); zone of inhibition at 500 µg/disc [9]: 10 mm |
| CCNC(=S)Nc1nnc2c(Cl)nc3ccc(C)cc3n12 | 160 (≈ 499 µM) | 80 (≈ 249 µM) | <25 | 15 | 15 | 87 (≈ 271 µM) | zone of inhibition at 500 µg/disc [5]: 20 mm; MIC [6]: 115 µg/mL (≈ 358 µM); MIC [10]: 89 µg/mL (≈ 277 µM); zone of inhibition at 500 µg/disc [9]: 10 mm |
| Cc1ccc2nc(Cl)c3nnc(NC(=S)Nc4ccccc4)n3c2c1 | 200 (≈ 542 µM) | 20 (≈ 54.2 µM) | 25 | – | – | – | – |
| Cc1ccc2nc(Cl)c3nnc(/N=C/c4ccc(O)cc4)n3c2c1 | 160 (≈ 474 µM) | 80 (≈ 237 µM) | <25 | – | – | – | – |
| COc1ccc(/C=N/c2nnc3c(Cl)nc4ccc(C)cc4n23)cc1OC | 160 (≈ 419 µM) | 80 (≈ 210 µM) | <25 | – | – | – | – |
| COC(=O)c1cc(=O)n2nc3c(Cl)nc4ccc(C)cc4n3c2n1 | 160 (≈ 465 µM) | 80 (≈ 233 µM) | <25 | – | – | – | – |
| CCOC(=O)c1cnc2n(nc3c(Cl)nc4ccc(C)cc4n32)c1=O | – | – | – | 10 | – | – | – |
| Cc1ccc2nc(N3CCN(c4ccccc4C)CC3)c3nnc(N)n3c2c1 | – | – | – | – | 10 | 85 (≈ 228 µM) | zone of inhibition at 500 µg/disc [5]: 10 mm; zone of inhibition at 500 µg/disc [9]: 10 mm |
| C[C@@]1(CO)[C@H](O)CC[C@@]2(C)[C@H]1CC[C@H]1C[C@@H]3C[C@@]12CC[C@]3(O)CO [APHIDICOLIN] | 20 (≈ 59.1 µM) | 5 (≈ 14.8 µM) | 100 | – | – | – | – |
| O=C(O)c1cn(C2CC2)c2cc(N3CCNCC3)c(F)cc2c1=O [CIPROFLOXACIN] | – | – | – | – | – | 57 (≈ 172 µM) | zone of inhibition at 50 µg/mL [12]: > 20 mm; MIC [6]: 76 µg/mL (≈ 229 µM); MIC [11]: 62 µg/mL (≈ 187 µM); zone of inhibition at 50 µg/mL [13]: > 20 mm; zone of inhibition at 50 µg/mL [14]: 15 mm |
| Clc1ccccc1C(c1ccccc1)(c1ccccc1)n1ccnc1 [CLOTRIMAZOLE] | – | – | – | – | – | – | MIC [10]: 48 µg/mL (≈ 139 µM); zone of inhibition at 1000 µg/mL [15]: > 20 mm |
